# Patent US20250381216A1, “PROPHYLACTIC DRUG AND THERAPEUTIC DRUG FOR DIABETES-ASSOCIATED DEMENTIA” (priority 2022, published 2025)
# How the values were obtained:
# [1] = system: diabetes-associated dementia model (STZ injected into the cerebral ventricles of mice); experiment: Morris water maze training test (spatial learning) in mice given streptozotocin intracerebroventricularly; type: in vivo, C57BL/6 mice
# From the text: (§1) Male C57BL/6 mice (20-22 g), 6 weeks old, were purchased from Japan SLC, Inc., and acclimated for one week. All mice (3-5 mice per cage) were maintained under specific pathogen-free conditions with a 12-hour light/dark cycle in a temperature and humidity-controlled room, with free access to food and water. Mouse diet (D12450B) was purchased from Research Diets, Inc. After the experiment, mice were anesthetized with 4% isoflurane vapor using a simple inhalation anesthesia device (NARCOBIT-E, Natsume Seisakusho Co., Ltd.) and euthanized by cardiac puncture for whole blood collection.
# (§2) LPS (Pantoea agglomerans LPS mac0001, Macrophi Inc.), prepared and purified according to the fermentation culture method (PTL 2) developed by Soma et al., was used. LPS was administered orally by dissolving LPS in drinking water (sterilized distilled water) at a dose of 1 mg/kg body weight/day. The LPS dosage was based on previous studies (NPL 8, 9). Drinking water was replaced weekly, and LPS concentration was adjusted according to average body weight and water intake. The LPS used is a substance present in the environment, consumed to some extent in daily life, and has also been added to food and cosmetics. LPS, when orally fed, enhances the functionality of phagocytes (macrophages) in the peritoneal cavity and brain (NPL 8, 9). Activated phagocytes have the function of repairing damaged tissues in the body. LPS may be derived from plant symbiotic bacteria with food experience, such as Pantoea, Enterobacter, Xanthomonas, Acetobacteraceae, and Zymomonas, but the specific strain is not limited as long as it is LPS.
# We used a method of directly administering STZ into the cerebral ventricles as a model of the diabetes-associated dementia that causes spatial memory deterioration without increasing blood glucose levels (NPL 7). STZ was purchased from Sigma-Aldrich Co. LLC. After anesthetizing with 4% isoflurane using a stereotaxic apparatus SR-5M-HT (Narishige Co., Ltd.), STZ (2.0 mg/mouse, dissolved in 5 μl saline) was injected singly into the right lateral ventricle using a microinjector IMS-20 and micromanipulator SMM-100 (Narishige Co., Ltd.). The stereotaxic coordinates were +0.3 mm anterior, +1.0 mm lateral (right), and +2.5 mm ventral from the intersection of the sagittal and coronal sutures. After suturing the skin, an appropriate amount of antibiotic ointment (20 mg/g chloramphenicol, 5 mg/g fradiomycin, 100,000 U/g nystatin, Daiichi Sankyo Healthcare Co., Ltd.) was applied to the wound. For non-STZ control mice, 5 μl of saline was injected into the right lateral ventricle. After surgery, mice were monitored daily for pain/discomfort and infection according to guidelines. 5 μL of 5% trypan blue (Nacalai Tesque, Inc.) was administered intracerebroventricularly to confirm proper needle placement.
# For the prevention experiment of LPS oral administration against the diabetes-associated dementia, mice were given free access to LPS in drinking water (1 mg/kg body weight/day for 33 days until the end of the test) from one week before STZ administration until the end of the experiment. Cognitive assessment tests (Morris water maze test) were conducted 3 weeks after STZ administration (4 weeks after starting LPS oral intake). 17-19 mice were used for each group.
# For the treatment experiment of LPS oral administration against the diabetes-associated dementia, cognitive assessment tests (Morris water maze test) were conducted 12 days after STZ administration to confirm cognitive function decline. From 20 days after STZ administration, mice were given free access to LPS in drinking water (1 mg/kg body weight/day for 25 days until the end of the test). Cognitive assessment tests (Morris water maze test) were conducted 40 days after STZ administration (day 20 of LPS oral intake).
# The Morris water maze test consists of tests evaluating spatial learning ability (training test) and spatial memory ability (probe test). […]
# [2] = system: diabetes-associated dementia model (STZ injected into the cerebral ventricles of mice); experiment: Morris water maze probe test (spatial memory) in mice given streptozotocin intracerebroventricularly; type: in vivo, C57BL/6 mice; settings: for Residence time in the quadrant where the platform was previously located: mean ± SE
# From the text: as §1, §2
# We used a method of directly administering STZ into the cerebral ventricles as a model of the diabetes-associated dementia that causes spatial memory deterioration without increasing blood glucose levels (NPL 7). STZ was purchased from Sigma-Aldrich Co. LLC. […] After surgery, mice were monitored daily for pain/discomfort and infection according to guidelines. […]
# [3] = training test starting 12 days after icv STZ 2.0 mg/mouse, before LPS treatment, mean ± SE
# [4] = treatment experiment, training test starting 40 days after icv STZ, LPS 1 mg/kg body weight/day in drinking water from day 20 after STZ
smiles,measurement,setting,value
"CN(N=O)C(=O)N[C@H]1C(O)O[C@H](CO)[C@@H](O)[C@@H]1O (mixture of isomers) [STZ, streptozotocin]","Spatial learning ability (platform travel time over 4 days of training, FIG. 1)","[1]; prevention experiment, LPS 1 mg/kg body weight/day in drinking water from one week before icv STZ, test three weeks after STZ",inhibited reduction in platform travel time compared to the Saline group
same,"Travel time (time required to reach the platform), training day 1",[1]; [3],55.1 ± 2.14 s
same,"Travel time (time required to reach the platform), training day 2",[1]; [3],43.8 ± 7.00 s
same,"Travel time (time required to reach the platform), training day 3",[1]; [3],40.4 ± 7.09 s
same,"Travel time (time required to reach the platform), training day 4",[1]; [3],33.3 ± 6.74 s
same,"Travel time (time required to reach the platform), training day 1",[1]; [4],44.42 ± 3.81 s
same,"Travel time (time required to reach the platform), training day 2",[1]; [4],37.25 ± 10.41 s
same,"Travel time (time required to reach the platform), training day 3",[1]; [4],27.83 ± 7.71 s
same,"Travel time (time required to reach the platform), training day 4",[1]; [4],35.75 ± 10.44 s
same,"Spatial memory ability (residence time in the target quadrant, FIG. 2)","[2]; prevention experiment, LPS 1 mg/kg body weight/day in drinking water from one week before icv STZ, probe test the day after training",significantly shorter residence time in the target quadrant compared to the Saline group
same,Residence time in the quadrant where the platform was previously located,"[2]; probe test 16 days after icv STZ 2.0 mg/mouse, before LPS treatment, 60-second test",18.0 ± 2.83 s
same,Residence time in the quadrant where the platform was previously located,"[2]; treatment experiment, probe test 44 days after icv STZ, LPS 1 mg/kg body weight/day in drinking water from day 20 after STZ",24.1 ± 8.73 s
